Measurements published in patent publication US20070065428A1, “Early B-cell detection for selecting vaccines” (Pepscan Systems B.V., priority 2004, published 2007).
Where “and” joins values, the source holds several entries; their conditions need not be identical. Equal values may be shown once. Non-standard residues stand in square brackets, D forms with d. No end group written: not given here. *: point of attachment. Biotin = O=C1N[C@H]2[C@H](CS[C@H]2CCCCC(=O)*)N1; pGlu = O=C1CC[C@@H](C(=O)O)N1

Experiments:
GnRH-specific B cells [1] = experiment: Staining of specific B cells with tetramers made from C-term, N-term or middle biotinylated GnRH; assay type: cell-based, mice; conditions: middle- or C-terminally biotinylated GnRH (FIG. 3B)
Protocol: FIG. 3B: Specific B cells are recognized only by C-term tetramer. Peptide-tetrameric molecules made with different biotinylated GnRH: C-term, N-term, and middle biotinylated peptides.
Tetrameric molecules were produced by mixing equal volumes of C-biotinylated, middle biotinylated or N-biotinylated GnRH at 200 μM (Pepscan Systems) with R-phycoerythrin (PE)-labeled neutravidin at 3.3 μM (PE-NA, Molecular Probes, Eugene, Oreg.), or allophycocyanin (APC)-labeled streptavidin at 6.1 μM (APC-SA, Molecular Probes). Each mixture was incubated at 4° C. for at least 12 hours. Then, tetramers were separated from non-complexed peptide by gel filtration using Bio-Gel P-30 spin columns (Bio-Rad, Hercules, Calif.).
As a further specificity test, we produced tetramers using peptides that were N-, middle-, or C-terminally labeled.

hCG-specific B cells = experiment: Double-tetramer (PE/APC hCG-tetramer) flow cytometry of rat lymphocytes after immunization with CTP-hCG; assay type: in vivo; conditions: rat spleen lymphocytes, days 10 to 12 after one i.p. immunization; hCG-tetramer double-staining; one value per rat (nos. 1-3)
Protocol: Six eight-week-old rats were used and were treated according to the ethical guidelines of our institutions. Rats (nos. 1, 2, and 3) were immunized intraperitoneally on day 0 with 100 μg C-Terminal Peptide (CTP), which comprises amino acid position 109-145 of hCG, coupled with 300 μg KLH, in Complete Freunds Adjuvant (CFA). The accession number of hCG is p01233, the Swiss prot. entry name is CGHB_HUMAN.
Control rats (nos. 4, 5, and 6) were immunized with KLH in CFA. On days 10 to 12, the animals were sacrificed and spleens were harvested. All animal experiments were performed with permission from the local ethical committee (DEC).
Cell suspensions of splenocytes were obtained by mechanical disruption of the spleens. Lymphocytes were collected using a Ficoll gradient. The resulting single-cell suspensions were stained with hCG-tetramers at optimal dilution. Staining was conducted at 4° C. in two steps. First, cells were stained with the PE-labeled tetramer of hCG for one hour, using the empirically determined optimal concentration. Cells were then washed three times with FACS buffer. Next, cells were stained with the APC-labeled tetramer of hCG and washed again. […]
Lymphocytes were stained with hCG-tetramers. […] Only […] detected as a responder to the immunization based on specific B-cell responses.

GnRH-specific B cells [2] = experiment: Inhibition of GnRH-tetramer staining of specific B cells by pre-incubation with unlabeled GnRH; assay type: cell-based, mice
Protocol: FIG. 3A: Unlabeled GnRH or Gastrin is able to inhibit the peptide-tetrameric molecule staining of the specific B cells. […] Splenocytes were pre-incubated with unlabeled GnRH or Gastrin, followed by incubation with labeled tetramers and anti-CD19 and anti-CD3 antibodies. Three doses of unlabeled antigens were used: 2 mM, 20 μM and 0.2 μM.
Lymphocytes were preincubated with unlabeled peptide followed by incubation with labeled tetramers, CD19 and CD3e antibodies.

GnRH = conditions: cited from earlier work; for biological effect: peptide conjugated to a carrier protein (Meloen et al., 1994; Oonk et al., 1998); for immunogenicity: peptide conjugated to a carrier protein, resulting in GnRH-neutralizing antibodies (Meloen et al., 1994; Oonk et al., 1998)

Substance: C-term biotinylated GnRH tetrameric: C-biotinylated GnRH complexed with PE-labeled neutravidin or APC-labeled streptavidin (QHWSYGLRPG-biotin; ends and bridges not checked; also: tetramer with PE-labeled neutravidin or APC-labeled streptavidin; UniProt P01148 24-33, looked up)
- detection of specific B cells by the tetramer (GnRH-specific B cells [1]): able to detect the specific B cells

Substance: CTP-KLH/CFA: C-Terminal Peptide, amino acid position 109-145 of hCG, coupled with KLH, in Complete Freunds Adjuvant (TCDDPRFQDSSSSKAPPPSLPSPSRLPGPSDTPILPQ; also: coupled with KLH, in Complete Freunds Adjuvant; UniProt P0DN86 129-165, looked up, fragment)
- Pos. B cells per 1 × 10^6 cells in Facs (hCG-specific B cells): 61 per 1 × 10^6 cells and 47 per 1 × 10^6 cells and 136 per 1 × 10^6 cells

Substance: N-term: tetramer of N-biotinylated GnRH with PE-labeled neutravidin or APC-labeled streptavidin (Biotin-QHWSYGLRPG; ends and bridges not checked; also: tetramer with PE-labeled neutravidin or APC-labeled streptavidin; UniProt P01148 24-33, looked up)
- detection of specific B cells by the tetramer (GnRH-specific B cells [1]): Only the C-term peptide was able to detect the specific cells

Substance: Unlabeled GnRH: Gonadotrophin-releasing hormone, a decapeptide, used unlabeled as competitor of tetramer staining (QHWSYGLRPG; ends and bridges not checked; UniProt P01148 24-33, looked up)
- inhibition of tetramer staining, dose dependence (GnRH-specific B cells [2]; lymphocytes preincubated with unlabeled peptide, then labeled tetramers (FIG. 3A)): inhibited by inclusion of unlabeled peptide in a dose-dependent manner
- inhibition of peptide-tetramer staining of specific B cells (GnRH-specific B cells [2]; splenocytes pre-incubated with unlabeled antigen, higher dose of 2 mM, 20 μM and 0.2 μM): nearly abolished

Substance: dimerized form of pEHWSYkLRPGQHWSYkLRPGC [TDK]
- biological effect (GnRH): full biological effect in all treated animals
- immunogenicity (GnRH): highly immunogenic

Substance: middle biotinylated peptides: tetramer of middle biotinylated GnRH with PE-labeled neutravidin or APC-labeled streptavidin (QHWSYGLRPG; ends and bridges not checked; also: middle biotinylated, tetramer with PE-labeled neutravidin or APC-labeled streptavidin; UniProt P01148 24-33, looked up)
- detection of specific B cells by the tetramer (GnRH-specific B cells [1]): Only the C-term peptide was able to detect the specific cells

Substance: pEHWSYGLRPGQHWSYGLRPGC ([pGlu]HWSYGLRPGQHWSYGLRPGC) [GnRH tandem]
- biological effect (GnRH): full biological effect in all treated animals
- immunogenicity (GnRH): highly immunogenic
